Measurements from PubChem BioAssay (NCI).
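Protocol summary: plate cells (96-well), add compound at 5 concentrations, incubate 48 h, interpolate endpoints linearly. TGI marks complete inhibition of growth.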

How the values were obtained:
Test in all cases: NCI anticancer screen, dose series, 48 h
MCF7 breast = tested on: MCF7 breast
MDA-MB-231 breast = tested on: MDA-MB-231 breast
RXF 393 renal = tested on: RXF 393 renal
SK-MEL-5 melanoma = tested on: SK-MEL-5 melanoma
786-0 renal = tested on: 786-0 renal
HCC-2998 colon = tested on: HCC-2998 colon
CCRF-CEM leukemia = tested on: CCRF-CEM leukemia
HCT-15 colon = tested on: HCT-15 colon
OVCAR-4 ovarian = tested on: OVCAR-4 ovarian
BT-549 breast = tested on: BT-549 breast
M14 melanoma = tested on: M14 melanoma
SF-295 CNS = tested on: SF-295 CNS
HOP-92 NSCLC = tested on: HOP-92 NSCLC
UO-31 renal = tested on: UO-31 renal
CAKI-1 renal = tested on: CAKI-1 renal
KM12 colon = tested on: KM12 colon
SK-OV-3 ovarian = tested on: SK-OV-3 ovarian
SR leukemia = tested on: SR leukemia
SNB-19 CNS = tested on: SNB-19 CNS

Compound	TGI (MCF7 breast) [µM]	TGI (MDA-MB-231 breast) [µM]	TGI (RXF 393 renal) [µM]	TGI (SK-MEL-5 melanoma) [µM]	TGI (786-0 renal) [µM]	TGI (HCC-2998 colon) [µM]	TGI (CCRF-CEM leukemia) [µM]	TGI (HCT-15 colon) [µM]	TGI (OVCAR-4 ovarian) [µM]	TGI (BT-549 breast) [µM]	TGI (M14 melanoma) [µM]	TGI (SF-295 CNS) [µM]	TGI (HOP-92 NSCLC) [µM]	TGI (UO-31 renal) [µM]	TGI (CAKI-1 renal) [µM]	TGI (KM12 colon) [µM]	TGI (SK-OV-3 ovarian) [µM]	TGI (SR leukemia) [µM]	TGI (SNB-19 CNS) [µM]
O=C1NCC2(CCN(Cc3ccccc3)CC2)N1	> 100	> 100	> 100	> 100	> 100	> 100	> 100	> 100	> 100	> 100	> 100	> 100	> 100	> 100	> 100	> 100	> 100	> 100	> 100
C[C@@H]1CCC2[C@@H](C)[C@H](O[C@H]3O[C@@H]4O[C@@]5(C)CCC6[C@H](C)CCC([C@H]3C)[C@]64OO5)O[C@@H]3O[C@@]4(C)CCC1[C@@]23OO4 (stereo not given in full)	25.3	13.1	21.4	12.8	18	14.5	18.3	12.4	16.4	14.7	20.6	18.8	11.4	11	13.9	13.3	41.7	1.28	25.2
NCCCCC(N)C(=O)N1CCN(c2nc(N3CCCC3)c3nc(Cl)c(NCc4ccccc4)nc3n2)CC1 (stereo not given)	38.1	34.3	34	34.1	33.1	34.7	37.7	35.2	50.8	34.4	33.9	35.4	25.8	32.9	91.8	47.2	37.4	44.9	33.2
COc1ccc(N2C(=O)CSC2c2cc3cc(Br)ccc3nc2Cl)cc1 (stereo not given)	> 50	> 50	> 50	> 50	> 50	> 50	> 50	> 50	> 50	> 50	> 50	> 50	> 50	> 50	> 50	> 50	> 50	> 50	> 50
COc1ccc(-c2nc(N)c(C#N)c3c2CCSc2ccc(C)cc2-3)cc1OC	63.5	35.8	> 100	25.2	> 61.1	> 57.8	23.6	> 73.1	> 93.8	70.8	> 100	> 100	55	27.2	> 70.5	34.2	> 95.1	18.1	> 83.5
